Data as given in the supplement of paper PMC13380429.

Experiments:
Settings in all cases: 72 h
[1] = test system: Caco-2; assay: cell viability relative to DMSO; higher = less toxic
[2] = test system: Calu-3; assay: as above
[3] = test system: HepG2; assay: as above
[4] = test system: U2OS; assay: as above
[5] = test system: Vero E6; assay: as above
[6] = test system: Caco-2; assay: relative viability EC50 (midpoint between 100% and the lowest measured viability); higher = less toxic
[7] = test system: Calu-3; assay: as above
[8] = test system: HepG2; assay: as above
[9] = test system: U2OS; assay: as above
[10] = test system: Vero E6; assay: as above
[11] = test system: Caco-2; assay: drug sensitivity score (DSS) for viability; higher = more toxic; extreme values may be limits of the assay
[12] = test system: Calu-3; assay: as above
[13] = test system: HepG2; assay: as above
[14] = test system: U2OS; assay: as above
[15] = test system: Vero E6; assay: as above

SMILES	cell viability ([1]; 1 nM)	cell viability ([1]; 10 nM)	cell viability ([1]; 100 nM)	cell viability ([1]; 1000 nM)	cell viability ([1]; 10000 nM)	cell viability ([2]; 1 nM)	cell viability ([2]; 10 nM)	cell viability ([2]; 100 nM)	cell viability ([2]; 1000 nM)	cell viability ([2]; 10000 nM)	cell viability ([3]; 1 nM)	cell viability ([3]; 10 nM)	cell viability ([3]; 100 nM)	cell viability ([3]; 1000 nM)	cell viability ([3]; 10000 nM)	cell viability ([4]; 1 nM)	cell viability ([4]; 10 nM)	cell viability ([4]; 100 nM)	cell viability ([4]; 1000 nM)	cell viability ([4]; 10000 nM)	cell viability ([5]; 1 nM)	cell viability ([5]; 10 nM)	cell viability ([5]; 100 nM)	cell viability ([5]; 1000 nM)	cell viability ([5]; 10000 nM)	relative viability EC50 [6]	relative viability EC50 [7]	relative viability EC50 [8]	relative viability EC50 [9]	relative viability EC50 [10]	drug sensitivity score [11]	drug sensitivity score [12]	drug sensitivity score [13]	drug sensitivity score [14]	drug sensitivity score [15]
CN(C)C(=N)NCCC[C@H](N)C(=O)O [asymmetrical-dimethylarginine]	101%	99.4%	97.9%	93.3%	101%	107%	99.9%	112%	102%	97.9%	86.7%	96.8%	95.1%	105%	101%	100%	93.2%	96.2%	93.5%	97%	97.4%	101%	96.5%	101%	90.7%	> 10 µM	> 10 µM	> 10 µM	> 10 µM	> 10 µM	0	0	0	0	0
CC1(C)CCC(C)(C)c2cc(C3(c4ccc(C(=O)O)cc4)OCCO3)ccc21 [BMS-649]	92.7%	95.5%	93.1%	100%	101%	96.7%	99%	100%	91.5%	109%	109%	87.6%	113%	108%	103%	95.2%	98.4%	101%	103%	99%	96%	97.6%	100%	92.4%	97.8%	> 10 µM	> 10 µM	> 10 µM	> 10 µM	> 10 µM	0	0	0	0	0
NCCc1ccc(O)c(O)c1 [dopamine]	106%	97.7%	92.5%	91.1%	89.9%	100%	100%	100%	99.8%	109%	106%	107%	95.1%	115%	99.6%	101%	96.6%	101%	100%	100%	103%	106%	102%	97%	99.4%	> 10 µM	> 10 µM	> 10 µM	> 10 µM	> 10 µM	0	0	0	0	0
CCN(c1cc(C#CCN2CCOCC2)cc(C(=O)NCc2c(C)cc(C)[nH]c2=O)c1C)[C@H]1CC[C@H](N(C)CCOC)CC1	92.5%	103%	86.4%	95.3%	91.6%	97.6%	95.3%	108%	103%	103%	92.7%	122%	112%	105%	91.2%	94.3%	95.7%	96.4%	97.7%	103%	107%	96.9%	95.9%	96.8%	102%	> 10 µM	> 10 µM	> 10 µM	> 10 µM	> 10 µM	0	0	0	0	0
CN1CCN(CCCN2c3ccccc3Sc3ccc(S(=O)(=O)N(C)C)cc32)CC1 [thioproperazine]	95.7%	93.3%	89.6%	113%	79%	98%	93.5%	105%	103%	90.9%	108%	103%	105%	99.6%	92.5%	107%	97.1%	104%	99.7%	97.9%	99.3%	95.9%	94.9%	85.2%	90.6%	> 10 µM	> 10 µM	> 10 µM	> 10 µM	> 10 µM	0.4	0	0	0	0.6
c1ccc2c(Cc3c[nH]c4ccccc34)c[nH]c2c1 [3,3'-diindolylmethane]	108%	117%	91.3%	117%	102%	104%	98.5%	97.2%	104%	98.6%	93.6%	101%	97%	86.8%	91.7%	100%	102%	101%	104%	94.3%	99%	102%	100%	93.4%	89.3%	> 10 µM	> 10 µM	> 10 µM	> 10 µM	> 10 µM	0	0	1.1	0	0.1
C/C=C1\[C@H]2C=C(C)C[C@]1(N)c1ccc(=O)[nH]c1C2 [(-)-Huperzine A]	103%	97.7%	90.6%	100%	107%	91%	96.7%	96.1%	106%	101%	106%	97.4%	102%	93%	97.5%	95.1%	101%	98.8%	103%	98.3%	93%	96.8%	98%	90.7%	107%	> 10 µM	> 10 µM	> 10 µM	> 10 µM	> 10 µM	0	0	0	0	0
Cc1c(CN2CCN(C(=O)[C@H](C)O)CC2)sc2c(N3CCOCC3)nc(-c3cnc(N)nc3)nc12 [GDC-0980]	99.4%	88.5%	93.1%	47.8%	22.4%	107%	101%	93.6%	42.2%	19.2%	104%	102%	89.9%	49.5%	15.9%	101%	98%	98.8%	78.9%	18.1%	96.5%	101%	87.7%	62.9%	23.4%	0.561 µM	0.537 µM	0.67 µM	1.53 µM	0.899 µM	11	11.9	11.1	7.8	8.8
CC(C)(C)/[N+]([O-])=C/c1ccc(S(=O)(=O)O)cc1S(=O)(=O)O [NXY-059]	98.5%	101%	96.5%	105%	97.5%	91.3%	97%	98.4%	95%	95.8%	101%	94.4%	102%	100%	96.8%	94.6%	100%	93.4%	98.7%	106%	99.1%	105%	106%	105%	101%	> 10 µM	> 10 µM	> 10 µM	> 10 µM	> 10 µM	0	0	0	0	0
Cn1cnnc1Sc1c([N+](=O)[O-])ncn1C [MNITMT]	99.9%	96.3%	104%	94.2%	95.8%	100%	111%	94.9%	85.5%	92.2%	100%	99.9%	93.1%	94.1%	99.7%	102%	97.7%	99.5%	97.4%	98.4%	105%	99.3%	99.2%	97.5%	88.7%	> 10 µM	> 10 µM	> 10 µM	> 10 µM	> 10 µM	0	1.7	0	0	0.1
CNCC[C@@H](Oc1ccccc1C)c1ccccc1 [atomoxetine]	99%	96.8%	98.3%	97.8%	92.8%	106%	104%	98.7%	86%	96.3%	87.3%	98.5%	100%	104%	93.5%	106%	97.5%	101%	94.8%	101%	106%	106%	102%	106%	99.1%	> 10 µM	> 10 µM	> 10 µM	> 10 µM	> 10 µM	0	1.2	0	0	0
O=S(=O)(c1ccccc1)c1cnc2c(N3CCNCC3)cccc2c1	95.9%	101%	102%	94.8%	101%	90.2%	96.5%	104%	96.7%	98.4%	93.8%	105%	97.1%	108%	87.2%	102%	96.8%	102%	99%	97%	93.3%	97.4%	95%	97.3%	106%	> 10 µM	> 10 µM	> 10 µM	> 10 µM	> 10 µM	0	0	0	0	0
O=C1NC(=O)C(c2ccccc2[N+](=O)[O-])=C1Nc1ccc(O)c(Cl)c1	98.1%	94.3%	104%	95.7%	107%	91.4%	91.9%	94.4%	85.9%	88.9%	102%	97.1%	95.5%	104%	100%	93.5%	94.9%	101%	103%	104%	101%	103%	98.8%	105%	105%	> 10 µM	> 10 µM	> 10 µM	> 10 µM	> 10 µM	0	0	0	0	0
CC(=O)[C@H]1CC[C@H]2[C@@H]3CC[C@H]4C[C@H](O)CC[C@]4(C)[C@H]3C(=O)C[C@]12C [alfaxalone]	101%	101%	89.6%	103%	104%	94.7%	99.9%	87.7%	97.4%	101%	98.6%	102%	94.1%	96.1%	106%	97.8%	99.2%	97.7%	103%	102%	99.6%	95.9%	99.7%	94.3%	107%	> 10 µM	> 10 µM	> 10 µM	> 10 µM	> 10 µM	0	0	0	0	0
